For this test, the system named is Human multiple myeloma cell line U266. The experiment in a line: Cancer cell apoptosis induction, Annexin V/PI flow cytometry. The note with it: EGCG and eriodictyol 5 μM each, 96 hours, FIG. 1. Format: cell-based. The procedure:
Human multiple myeloma cell line U266 was subcultured and maintained in RPMI 1640 medium supplemented with 10% fetal bovine serum (FCS) under conditions of 37° C. and water vapor-saturated 5% CO2. The cells were maintained in the logarithmic growth phase. The RPMI 1640 medium used for culture was prepared as follows: per liter of ultrapure water, RPMI 1640 medium (10.4 g), HEPES (2.38 g), injectable penicillin G potassium (100,000 units), streptomycin sulfate injectable (100 mg) and NaHCO3 (2.0 g) were suspended and then filter-sterilized.
Then, the RPMI 1640 medium was supplemented with FCS and used for cell culture. To examine the apoptosis induction effect on human multiple myeloma cell line U266 produced upon combination of EGCG and eriodictyol, double staining was performed with Annexin V and PI. For use as a propidium iodide (PI) stain solution, PI (Sigma) was suspended in PBS at a concentration of 50 μg/mL. […]
Then, the fully suspended cell culture was centrifuged at 300×g for 5 minutes to remove the supernatant, and then suspended with the Annexin V binding buffer, counted with a hemacytometer, centrifuged again at 300×g for 5 minutes and then suspended with the Annexin V binding buffer. […] After compensation, the Annexin V Alexa Fluor 488 conjugate was measured at FL 1 and cells determined to be positive were regarded as apoptotic cells. […]

Molecules are shown by their SMILES.

As for `O=C1C[C@@H](c2ccc(O)c(O)c2)Oc2cc(O)cc(O)c21` [eriodictyol], the “effect on the cancer cell apoptosis induction effect of EGCG (Annexin V positive cells)” value was “enhance the apoptosis induction effect of EGCG”.

Source of the values: US10251408B2, “Catechin function enhancement method” (KYUSHU UNIVERSITY, NATIONAL UNIVERSITY CORPORATION, priority 2014, dated 2019).
